We go through 28 molecules from patent US10758534B2 (Vertex Pharmaceuticals Incorporated, priority 2014, dated 2020).

Molecules are shown by their SMILES.

T1 sequence (P13569 with tags, fused parts or gaps DEL508-508): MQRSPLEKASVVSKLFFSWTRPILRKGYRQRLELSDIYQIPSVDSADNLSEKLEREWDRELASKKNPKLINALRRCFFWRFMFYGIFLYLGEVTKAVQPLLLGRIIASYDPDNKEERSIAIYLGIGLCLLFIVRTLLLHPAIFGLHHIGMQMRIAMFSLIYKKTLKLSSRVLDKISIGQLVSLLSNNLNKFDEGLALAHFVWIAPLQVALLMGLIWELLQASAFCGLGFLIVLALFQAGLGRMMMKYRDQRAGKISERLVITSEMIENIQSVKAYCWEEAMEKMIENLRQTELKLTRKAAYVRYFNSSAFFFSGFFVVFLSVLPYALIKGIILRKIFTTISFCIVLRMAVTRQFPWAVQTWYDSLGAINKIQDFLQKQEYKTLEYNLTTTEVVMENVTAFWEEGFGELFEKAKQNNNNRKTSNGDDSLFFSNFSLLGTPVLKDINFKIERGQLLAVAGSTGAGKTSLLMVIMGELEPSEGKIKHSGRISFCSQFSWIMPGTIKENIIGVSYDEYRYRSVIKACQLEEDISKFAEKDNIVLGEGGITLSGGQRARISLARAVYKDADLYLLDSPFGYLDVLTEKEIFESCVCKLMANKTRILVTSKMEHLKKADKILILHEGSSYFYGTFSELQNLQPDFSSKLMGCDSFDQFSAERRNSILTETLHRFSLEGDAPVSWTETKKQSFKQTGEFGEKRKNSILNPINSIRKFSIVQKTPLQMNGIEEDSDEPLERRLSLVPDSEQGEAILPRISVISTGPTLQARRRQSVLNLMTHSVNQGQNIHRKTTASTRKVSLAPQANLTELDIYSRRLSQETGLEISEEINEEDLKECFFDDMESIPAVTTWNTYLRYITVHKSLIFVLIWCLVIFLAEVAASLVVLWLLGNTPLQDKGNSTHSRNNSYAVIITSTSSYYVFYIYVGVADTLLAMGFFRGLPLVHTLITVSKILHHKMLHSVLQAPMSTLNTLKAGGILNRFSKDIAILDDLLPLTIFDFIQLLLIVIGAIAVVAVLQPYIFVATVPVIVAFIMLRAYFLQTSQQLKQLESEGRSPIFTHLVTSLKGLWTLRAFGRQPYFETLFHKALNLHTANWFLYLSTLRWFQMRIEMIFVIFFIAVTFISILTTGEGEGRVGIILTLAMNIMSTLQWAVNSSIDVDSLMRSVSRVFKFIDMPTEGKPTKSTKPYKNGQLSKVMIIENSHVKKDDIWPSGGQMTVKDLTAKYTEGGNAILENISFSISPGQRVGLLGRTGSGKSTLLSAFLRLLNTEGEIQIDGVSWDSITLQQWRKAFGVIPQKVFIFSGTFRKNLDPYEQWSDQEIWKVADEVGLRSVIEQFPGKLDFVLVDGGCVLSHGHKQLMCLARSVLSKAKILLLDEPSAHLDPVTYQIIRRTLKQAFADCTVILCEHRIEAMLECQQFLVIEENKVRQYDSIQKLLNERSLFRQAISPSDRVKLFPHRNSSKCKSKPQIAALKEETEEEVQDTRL

The assay concerns the target T1, F508del (Homo sapiens, UniProt P13569, DEL508-508).
T1 construct: expressed in transfected cells
Briefly: Protocol 1: membrane potential optical assay (FLIPR III, voltage sensing dye), identification of potentiator compounds. The format is cell-based. Particulars: Table 3, compounds of Table 1. In a few lines: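 Mouse NIH 3T3 fibroblasts stably expressing F508del, temperature-corrected at 27 °C for 24 h, pretreated with compound, then loaded with voltage-sensing redistribution dye. Forskolin was added in a single step with a chloride gradient (chloride-free gluconate bath; Bath Solution #1 HEPES pH 7.4). Membrane-potential fluorescence read on FLIPR III.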
Consider `Cc1cc(C)c(Oc2nc(-c3cccc4[nH]ccc34)ccc2C(=O)NS(=O)(=O)c2cccc(N)n2)c(C)c1` [Compound 977, N-[(6-amino-2-pyridyl)sulfonyl]-6-(1H-indol-4-yl)-2-(2,4,6-trimethylphenoxy)pyridine-3-carboxamide], for which the EC30 entry was “++ (“++” means between 3 uM and 10 uM)”.

Turning to `CC(C)=C(C)c1cnc(N2CC(C)CC2(C)C)c(C(=O)NS(=O)(=O)c2cccc(N)n2)c1` (stereo not shown) [Compound 1590, N-[(6-amino-2-pyridyl)sulfonyl]-5-(1,2-dimethylprop-1-enyl)-2-(2,2,4-trimethylpyrrolidin-1-yl)pyridine-3-carboxamide], the EC30 entry is on record as “+++ (“+++” means <3 uM)”.

With `COc1cc(F)c(-c2ccc(C(=O)NS(=O)(=O)c3ccc[nH]c3=O)c(N3C[C@@H](C)CC3(C)C)n2)cc1F` [Compound 1913, 6-(2,5-difluoro-4-methoxy-phenyl)-N-[(2-oxo-1H-pyridin-3-yl)sulfonyl]-2-[(4S)-2,2,4-trimethylpyrrolidin-1-yl]pyridine-3-carboxamide], the EC30 entry is “+++ (“+++” means <3 uM)”.

Turning to `CCOc1cc(-c2ccc(C(=O)NS(=O)(=O)c3ccc[nH]c3=O)c(Oc3c(C)cc(C)cc3C)n2)ccc1F` [Compound 917, 6-(3-ethoxy-4-fluoro-phenyl)-N-[(2-oxo-1H-pyridin-3-yl)sulfonyl]-2-(2,4,6-trimethylphenoxy)pyridine-3-carboxamide], the EC30 entry was “++ (“++” means between 3 uM and 10 uM)”.

As to `Cc1cc2c(cc1-c1cnc(N3CC(C)CC3(C)C)c(C(=O)NS(=O)(=O)c3cccc(N)n3)c1)C(C)(C)CCC2(C)C` (stereo not shown) [Compound 1759, N-[(6-amino-2-pyridyl)sulfonyl]-5-(1,1,4,4,7-pentamethyltetralin-6-yl)-2-(2,2,4-trimethylpyrrolidin-1-yl)pyridine-3-carboxamide], the EC30 entry was “+++ (“+++” means <3 uM)”.

For the molecule `CC(C)(C)c1ccc(C(=O)NS(=O)(=O)c2cccc(N)n2)c(N2CCC(C3CC3)C2(C)C)n1` (stereo not shown) [Compound 1974], the EC30 entry is “+++ (“+++” means <3 uM)”.

In the case of `C[C@@H]1CC[C@H](C)N1c1nc(-c2ccc(OC3CC3)nc2)ccc1C(=O)NS(=O)(=O)c1cccc(N)n1` [Compound 1125, N-[(6-amino-2-pyridyl)sulfonyl]-6-[6-(cyclopropoxy)-3-pyridyl]-2-[(2S,5R)-2,5-dimethylpyrrolidin-1-yl]pyridine-3-carboxamide], the EC30 entry was “++ (“++” means between 3 uM and 10 uM)”.

Turning to `Cc1cc(C)c(Oc2nc(C(C)(C)C)ccc2C(=O)NS(=O)(=O)c2ccnn2C)c(C)c1` [Compound 911, 6-tert-butyl-N-(2-methylpyrazol-3-yl)sulfonyl-2-(2,4,6-trimethylphenoxy)pyridine-3-carboxamide], the EC30 result was “+++ (“+++” means <3 uM)”.

`Cc1cc(C)c(Oc2nc(C3=CC4CCC3(C)C4(C)C)ccc2C(=O)NS(=O)(=O)c2cccc(N)n2)c(C)c1` (stereo not shown) [Compound 1410, N-[(6-amino-2-pyridyl)sulfonyl]-6-(4,7,7-trimethyl-3-bicyclo[2.2.1]hept-2-enyl)-2-(2,4,6-trimethylphenoxy)pyridine-3-carboxamide]: the EC30 entry was “+++ (“+++” means <3 uM)”.

Regarding `C[C@@H]1CN(c2nc(C3CCOCC3)ccc2C(=O)NS(=O)(=O)c2cccnc2N)C(C)(C)C1` [Compound 1850, N-[(2-amino-3-pyridyl)sulfonyl]-6-tetrahydropyran-4-yl-2-[(4S)-2,2,4-trimethylpyrrolidin-1-yl]pyridine-3-carboxamide], the EC30 result is listed as “+++ (“+++” means <3 uM)”.

Turning to `CC(C)COc1cc(F)cc(-c2ccc(C(=O)NS(=O)(=O)c3ccn[nH]3)c(N3CCC[C@@H]3c3ccccc3)n2)c1` [Compound 1060, 6-(3-fluoro-5-isobutoxy-phenyl)-2-[(2R)-2-phenylpyrrolidin-1-yl]-N-(1H-pyrazol-5-ylsulfonyl)pyridine-3-carboxamide], the EC30 result is on record as “+++ (“+++” means <3 uM)”.

For the molecule `CC(C)COc1cc(F)cc(-c2ccc(C(=O)NS(=O)(=O)N3CCCC3)c(N3C[C@@H](C)CC3(C)C)n2)c1` [Compound 1619, 6-(3-fluoro-5-isobutoxy-phenyl)-N-pyrrolidin-1-ylsulfonyl-2-[(4S)-2,2,4-trimethylpyrrolidin-1-yl]pyridine-3-carboxamide], the EC30 entry is “+++ (“+++” means <3 uM)”.

For the molecule `COc1ncc(-c2ccc(C(=O)NS(=O)(=O)c3cccc(N)n3)c(Oc3c(C)cc(C)cc3C)n2)cc1Cl` [Compound 1332, N-[(6-amino-2-pyridyl)sulfonyl]-6-(5-chloro-6-methoxy-3-pyridyl)-2-(2,4,6-trimethylphenoxy)pyridine-3-carboxamide], the EC30 entry is on record as “+++ (“+++” means <3 uM)”.

For `COc1ccc(F)cc1-c1ccc(C(=O)NS(=O)(=O)c2ccc[nH]c2=O)c(N2C[C@@H](C)CC2(C)C)n1` [Compound 1830, 6-(5-fluoro-2-methoxy-phenyl)-N-[(2-oxo-1H-pyridin-3-yl)sulfonyl]-2-[(4S)-2,2,4-trimethylpyrrolidin-1-yl]pyridine-3-carboxamide], the EC30 result is given as “+++ (“+++” means <3 uM)”.

As to `C[C@@H]1CN(c2nc(C(C)(C)C)c(C(O)C(O)C(C)(C)C)cc2C(=O)NS(=O)(=O)c2cccc(N)n2)C(C)(C)C1` (stereo partly shown) [Compound 1883], the EC30 result is reported as “+++ (“+++” means <3 uM)”.

As to `CC(C)COc1ccccc1-c1cnc(N2CC(C)CC2(C)C)c(C(=O)NS(=O)(=O)c2cccc(N)n2)c1` (stereo not shown) [Compound 1979, N-[(6-amino-2-pyridyl)sulfonyl]-5-(2-isobutoxyphenyl)-2-(2,2,4-trimethylpyrrolidin-1-yl)pyridine-3-carboxamide], the EC30 result is given as “+++ (“+++” means <3 uM)”.

On to `Cc1cc(-c2ccc(C(=O)NS(=O)(=O)c3cccnc3N)c(N3C[C@@H](C)CC3(C)C)n2)cc(C)c1O` [Compound 1923, N-[(2-amino-3-pyridyl)sulfonyl]-6-(4-hydroxy-3,5-dimethyl-phenyl)-2-[(4S)-2,2,4-trimethylpyrrolidin-1-yl]pyridine-3-carboxamide], for which the EC30 entry was “++ (“++” means between 3 uM and 10 uM)”.

Regarding `CCC1(C)CCCN(c2nc(-c3ccc(OC(C)C)nc3)ccc2C(=O)NS(=O)(=O)c2cccc(N)n2)C1` (stereo not shown) [Compound 1341, N-[(6-amino-2-pyridyl)sulfonyl]-2-(3-ethyl-3-methyl-1-piperidyl)-6-(6-isopropoxy-3-pyridyl)pyridine-3-carboxamide], the EC30 entry is recorded as “+++ (“+++” means <3 uM)”.

As to `CC(C)COc1cc(F)cc(-c2ccc(C(=O)NS(=O)(=O)c3cccc(N)n3)c(N3CC(C)CC3(C)C)c2F)c1` (stereo not shown) [Compound 1497, N-[(6-amino-2-pyridyl)sulfonyl]-3-fluoro-4-(3-fluoro-5-isobutoxy-phenyl)-2-(2,2,4-trimethylpyrrolidin-1-yl)benzamide], the EC30 entry was “+++ (“+++” means <3 uM)”.

On to `C[C@@H]1CN(c2nc(C(C)(C)C)c(/C=C/c3ccc(C(F)(F)F)cc3)cc2C(=O)NS(=O)(=O)c2cccc(N)n2)C(C)(C)C1` [Compound 1566, N-[(6-amino-2-pyridyl)sulfonyl]-6-tert-butyl-5-[(E)-2-[4-(trifluoromethyl)phenyl]vinyl]-2-[(4S)-2,2,4-trimethylpyrrolidin-1-yl]pyridine-3-carboxamide], for which the EC30 result was “+++ (“+++” means <3 uM)”.

Regarding `COc1cccc(S(=O)(=O)NC(=O)c2ccc(-c3cc(F)cc(OCC(C)C)c3)nc2N2CCC(C)(C)CC2)n1` [Compound 1090, 2-(4,4-dimethyl-1-piperidyl)-6-(3-fluoro-5-isobutoxy-phenyl)-N-[(6-methoxy-2-pyridyl)sulfonyl]pyridine-3-carboxamide], the EC30 result is on record as “+++ (“+++” means <3 uM)”.

Turning to `CC1CN(c2ncccc2C(=O)NS(=O)(=O)c2cccc(Oc3ccc(C(C)C)cc3)n2)C(C)(C)C1` (stereo not shown) [Compound 1902, N—[[6-(4-isopropylphenoxy)-2-pyridyl]sulfonyl]-2-(2,2,4-trimethylpyrrolidin-1-yl)pyridine-3-carboxamide], the EC30 entry is recorded as “+++ (“+++” means <3 uM)”.

`C[C@@H]1CN(c2nc(C3CCC(C(F)(F)F)CC3)ccc2C(=O)NS(=O)(=O)c2cccc(N)n2)C(C)(C)C1` (stereo partly drawn) [Compound 1672, N-[(6-amino-2-pyridyl)sulfonyl]-6-[4-(trifluoromethyl)cyclohexyl]-2-[(4S)-2,2,4-trimethylpyrrolidin-1-yl]pyridine-3-carboxamide]: the EC30 entry is recorded as “+++ (“+++” means <3 uM)”.

For the molecule `CCCN(C)c1cccc(S(=O)(=O)NC(=O)c2cccnc2N2CC(C)CC2(C)C)n1` (stereo not shown) [Compound 1711, N—[[6-[methyl(propyl)amino]-2-pyridyl]sulfonyl]-2-(2,2,4-trimethylpyrrolidin-1-yl)pyridine-3-carboxamide], the EC30 entry is listed as “+++ (“+++” means <3 uM)”.

`CC(C)COc1cc(F)cc(-c2ccc(C(=O)NS(=O)(=O)c3cccc(N)n3)c(OC3CCC(F)(F)CC3)n2)c1` [Compound 961, N-[(6-amino-2-pyridyl)sulfonyl]-2-(4,4-difluorocyclohexoxy)-6-(3-fluoro-5-isobutoxy-phenyl)pyridine-3-carboxamide]: the EC30 entry is given as “+++ (“+++” means <3 uM)”.

On to `CCN(CC)c1ncc(-c2ccc(C(=O)NS(=O)(=O)c3cccc(N)n3)c(N3C[C@@H](C)CC3(C)C)n2)cc1C` [Compound 1915, N-[(6-amino-2-pyridyl)sulfonyl]-6-[6-(diethylamino)-5-methyl-3-pyridyl]-2-[(4S)-2,2,4-trimethylpyrrolidin-1-yl]pyridine-3-carboxamide], for which the EC30 entry is “+++ (“+++” means <3 uM)”.

With `CC(C)COc1cc(F)cc(-c2ccc(C(=O)NS(=O)(=O)c3cccc(N)n3)c(C3=CCC(C)(C)CC3)n2)c1` [Compound 1493, N-[(6-amino-2-pyridyl)sulfonyl]-2-(4,4-dimethylcyclohexen-1-yl)-6-(3-fluoro-5-isobutoxy-phenyl)pyridine-3-carboxamide], the EC30 result is listed as “+++ (“+++” means <3 uM)”.

With `CCNc1ccc(C(=O)NS(=O)(=O)c2cccc(N)n2)c(Oc2c(C)cc(C)cc2C)n1` [Compound 1128, N-[(6-amino-2-pyridyl)sulfonyl]-6-(ethylamino)-2-(2,4,6-trimethylphenoxy)pyridine-3-carboxamide], the EC30 result was “++ (“++” means between 3 uM and 10 uM)”.
